Assay results published in patent US10815276B2, “Cell penetrating peptides and methods of making and using thereof” (Entrada Therapeutics, Inc., priority 2014, dated 2020).
Starred links: 1 amine or outer side, 2 acyl side, 3 side chain; linkers in the order of their positions; H or OH if unused. Positions of bridges follow the written chain, without caps; N, C: chain ends. Non-standard residues stand in square brackets, D forms with d. Residues, ends and D or L forms follow the SMILES beside them. Trimesoyl = O=C(c1cc(C(=O)[*:2])cc(C(=O)[*:3])c1)[*:1]; Phe(3,4-F2) = N[C@@H](Cc1ccc(F)c(F)c1)C(=O)O; Phe(4-Br) = N[C@@H](Cc1ccc(Br)cc1)C(=O)O; Phe(4-Cl) = N[C@@H](Cc1ccc(Cl)cc1)C(=O)O; Phe(4-F) = N[C@@H](Cc1ccc(F)cc1)C(=O)O; 2Nal = N[C@@H](Cc1ccc2ccccc2c1)C(=O)O; Pip = O=C(O)[C@@H]1CCCCN1; Dap = NC[C@H](N)C(=O)O; Sar = CNCC(=O)O

Target: T1, Pin1 (Homo sapiens, UniProt Q13526, S16A/Y23A)
T1 construct: The full-length human S16A/Y23A mutant Pin1 was expressed and purified from E. coli; made in house
T1 sequence (Q13526 whole entry S16A/Y23A): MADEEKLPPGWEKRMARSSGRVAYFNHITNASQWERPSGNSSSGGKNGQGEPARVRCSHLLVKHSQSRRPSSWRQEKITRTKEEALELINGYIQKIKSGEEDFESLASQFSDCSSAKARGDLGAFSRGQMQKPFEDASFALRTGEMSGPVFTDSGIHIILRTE
Test: Pin1 binding by FA (FITC-labeled peptides)
Settings: FITC-labeled peptide, FA; read-out: KD
Procedure: FA experiments were carried out by incubating 100 nM FITC-labeled peptide with varying concentrations of protein in 20 mM HEPES (pH 7.4), 150 mM NaCl, 2 mM magnesium acetate, and 0.1% bovine serum albumin (BSA) for 2 h at room temperature. The FA values were measured on a Molecular Devices Spectramax M5 plate reader, with excitation and emission wavelengths at 485 and 525 nm, respectively. Equilibrium dissociation constants (KD) were determined by plotting the FA values as a function of protein concentration and fitting the curve to the following equation:

In order of rising Kd:
1. C[C@@H]1NC(=O)[C@H](CCCNC(=N)N)NC(=O)[C@H](Cc2ccc3ccccc3c2)NC(=O)[C@@H]2CCCCN2C(=O)[C@@H]([C@H](C)O)NC(=O)[C@H](Cc2ccc(F)cc2)NC(=O)[C@@H](Cc2ccccc2)NC(=O)c2cc3cc(c2)C(=O)NC[C@H](NC(=O)[C@@H](Cc2ccccc2)NC1=O)C(=O)N[C@@H](Cc1ccccc1)C(=O)N[C@@H](Cc1ccc2ccccc2c1)C(=O)N[C@@H](CCCNC(=N)N)C(=O)N[C@@H](CCCNC(=N)N)C(=O)N[C@@H](CCCNC(=N)N)C(=O)N[C@@H](CCCNC(=N)N)C(=O)N[C@H](C(=O)N[C@@H](CCCCN)C(N)=O)CNC3=O [Peptide 27, bicyclo[Tm-(D-Phe-4-Fpa-D-Thr-Pip-Nal-Arg-Ala-D-Phe)-Dap-(Phe-Nal-Arg-Arg-Arg-Arg-Dap)]-Lys] ([dF][Phe(4-F)][dT][Pip][2Nal]RA[dF][Dap]F[2Nal]RRRR[Dap]K-NH2; linker N-9-16 via Trimesoyl; C-terminus assumed)  270 nM
2. C[C@@H]1NC(=O)[C@H](CCCNC(=N)N)NC(=O)[C@H](Cc2ccc3ccccc3c2)NC(=O)[C@@H]2CCCCN2C(=O)[C@@H]([C@H](C)O)NC(=O)[C@H](Cc2ccc(F)c(F)c2)NC(=O)[C@@H](Cc2ccccc2)NC(=O)c2cc3cc(c2)C(=O)NC[C@H](NC(=O)[C@@H](Cc2ccccc2)NC1=O)C(=O)N[C@@H](Cc1ccccc1)C(=O)N[C@@H](Cc1ccc2ccccc2c1)C(=O)N[C@@H](CCCNC(=N)N)C(=O)N[C@@H](CCCNC(=N)N)C(=O)N[C@@H](CCCNC(=N)N)C(=O)N[C@@H](CCCNC(=N)N)C(=O)N[C@H](C(=O)N[C@@H](CCCCN)C(N)=O)CNC3=O [Peptide 29, bicyclo[Tm-(D-Phe-3,4-diFPhe-D-Thr-Pip-Nal-Arg-Ala-D-Phe)-Dap-(Phe-Nal-Arg-Arg-Arg-Arg-Dap)]-Lys] ([dF][Phe(3,4-F2)][dT][Pip][2Nal]RA[dF][Dap]F[2Nal]RRRR[Dap]K-NH2; linker N-9-16 via Trimesoyl; C-terminus assumed)  410 ± 100 nM
3. CN1CC(=O)N[C@H](CC(=O)O)C(=O)N2CCCC[C@H]2C(=O)N[C@@H](Cc2ccc3ccccc3c2)C(=O)N[C@@H](CCCNC(=N)N)C(=O)N[C@@H](CCCNC(=N)N)C(=O)N[C@H](Cc2ccccc2)C(=O)N[C@H]2CNC(=O)c3cc(cc(c3)C(=O)N3CCC[C@H]3C1=O)C(=O)NC[C@@H](C(=O)N[C@@H](CCCCN)C(N)=O)NC(=O)[C@H](CCCNC(=N)N)NC(=O)[C@H](CCCNC(=N)N)NC(=O)[C@H](CCCNC(=N)N)NC(=O)[C@H](CCCNC(=N)N)NC(=O)[C@H](Cc1ccc3ccccc3c1)NC(=O)[C@H](Cc1ccccc1)NC2=O [Peptide 22, bicyclo[Tm-(Pro-Sar-D-Asp-Pip-Nal-Arg-Arg-D-Phe)-Dap-(Phe-Nal-Arg-Arg-Arg-Arg-Dap)]-Lys] (P[Sar][dD][Pip][2Nal]RR[dF][Dap]F[2Nal]RRRR[Dap]K-NH2; linker N-9-16 via Trimesoyl; C-terminus assumed)  480 nM
4. C[C@H](O)[C@H]1NC(=O)[C@H](Cc2ccc(F)cc2)NC(=O)[C@@H](Cc2ccccc2)NC(=O)c2cc3cc(c2)C(=O)NC[C@H](NC(=O)[C@@H](C)NC(=O)CNC(=O)[C@H](CCCNC(=N)N)NC(=O)[C@H](Cc2ccc4ccccc4c2)NC(=O)[C@@H]2CCCCN2C1=O)C(=O)N[C@@H](Cc1ccccc1)C(=O)N[C@@H](Cc1ccc2ccccc2c1)C(=O)N[C@@H](CCCNC(=N)N)C(=O)N[C@@H](CCCNC(=N)N)C(=O)N[C@@H](CCCNC(=N)N)C(=O)N[C@@H](CCCNC(=N)N)C(=O)N[C@H](C(=O)N[C@@H](CCCCN)C(N)=O)CNC3=O [Peptide 26, bicyclo[Tm-(D-Phe-4-Fpa-D-Thr-Pip-Nal-Arg-Gly-D-Ala)-Dap-(Phe-Nal-Arg-Arg-Arg-Arg-Dap)]-Lys] ([dF][Phe(4-F)][dT][Pip][2Nal]RG[dA][Dap]F[2Nal]RRRR[Dap]K-NH2; linker N-9-16 via Trimesoyl; C-terminus assumed)  740 ± 110 nM
5. C[C@@H]1NC(=O)[C@H](CCCNC(=N)N)NC(=O)[C@H](Cc2ccc3ccccc3c2)NC(=O)[C@@H]2CCCCN2C(=O)[C@@H]([C@H](C)O)NC(=O)[C@H](Cc2ccc(Cl)cc2)NC(=O)[C@@H](Cc2ccccc2)NC(=O)c2cc3cc(c2)C(=O)NC[C@H](NC(=O)[C@@H](Cc2ccccc2)NC1=O)C(=O)N[C@@H](Cc1ccccc1)C(=O)N[C@@H](Cc1ccc2ccccc2c1)C(=O)N[C@@H](CCCNC(=N)N)C(=O)N[C@@H](CCCNC(=N)N)C(=O)N[C@@H](CCCNC(=N)N)C(=O)N[C@@H](CCCNC(=N)N)C(=O)N[C@H](C(=O)N[C@@H](CCCCN)C(N)=O)CNC3=O [Peptide 30, bicyclo[Tm-(D-Phe-4-ClPhe-D-Thr-Pip-Nal-Arg-Ala-D-Phe)-Dap-(Phe-Nal-Arg-Arg-Arg-Arg-Dap)]-Lys] ([dF][Phe(4-Cl)][dT][Pip][2Nal]RA[dF][Dap]F[2Nal]RRRR[Dap]K-NH2; linker N-9-16 via Trimesoyl; C-terminus assumed)  780 ± 50 nM
6. C[C@@H]1NC(=O)[C@H](CCCNC(=N)N)NC(=O)[C@H](Cc2ccc3ccccc3c2)NC(=O)[C@@H]2CCCCN2C(=O)[C@@H]([C@H](C)O)NC(=O)[C@H](Cc2ccccc2)NC(=O)[C@@H](Cc2ccccc2)NC(=O)c2cc3cc(c2)C(=O)NC[C@H](NC(=O)[C@@H](Cc2ccccc2)NC1=O)C(=O)N[C@@H](Cc1ccccc1)C(=O)N[C@@H](Cc1ccc2ccccc2c1)C(=O)N[C@@H](CCCNC(=N)N)C(=O)N[C@@H](CCCNC(=N)N)C(=O)N[C@@H](CCCNC(=N)N)C(=O)N[C@@H](CCCNC(=N)N)C(=O)N[C@H](C(=O)N[C@@H](CCCCN)C(N)=O)CNC3=O [Peptide 28, bicyclo[Tm-(D-Phe-Phe-D-Thr-Pip-Nal-Arg-Ala-D-Phe)-Dap-(Phe-Nal-Arg-Arg-Arg-Arg-Dap)]-Lys] ([dF]F[dT][Pip][2Nal]RA[dF][Dap]F[2Nal]RRRR[Dap]K-NH2; linker N-9-16 via Trimesoyl; C-terminus assumed)  1260 ± 280 nM
7. CN1CC(=O)N[C@H](CC(=O)O)C(=O)N2CCCC[C@H]2C(=O)N[C@@H](Cc2ccc3ccccc3c2)C(=O)N[C@@H](CCCNC(=N)N)C(=O)N[C@@H](CCCNC(=N)N)C(=O)N[C@H](CCCNC(=N)N)C(=O)N[C@H]2CNC(=O)c3cc(cc(c3)C(=O)N3CCC[C@H]3C1=O)C(=O)NC[C@@H](C(=O)N[C@@H](CCCCN)C(N)=O)NC(=O)[C@H](CCCNC(=N)N)NC(=O)[C@H](CCCNC(=N)N)NC(=O)[C@H](CCCNC(=N)N)NC(=O)[C@H](CCCNC(=N)N)NC(=O)[C@H](Cc1ccc3ccccc3c1)NC(=O)[C@H](Cc1ccccc1)NC2=O [Peptide 24, bicyclo[Tm-(Pro-Sar-D-Asp-Pip-Nal-Arg-Arg-D-Arg)-Dap-(Phe-Nal-Arg-Arg-Arg-Arg-Dap)]-Lys] (P[Sar][dD][Pip][2Nal]RR[dR][Dap]F[2Nal]RRRR[Dap]K-NH2; linker N-9-16 via Trimesoyl; C-terminus assumed)  1310 ± 100 nM
8. C[C@@H]1NC(=O)[C@H](CCCNC(=N)N)NC(=O)[C@H](Cc2ccc3ccccc3c2)NC(=O)[C@@H]2CCCCN2C(=O)[C@@H]([C@H](C)O)NC(=O)[C@H](Cc2c[nH]cn2)NC(=O)[C@@H](Cc2ccccc2)NC(=O)c2cc3cc(c2)C(=O)NC[C@H](NC(=O)[C@@H](Cc2ccccc2)NC1=O)C(=O)N[C@@H](Cc1ccccc1)C(=O)N[C@@H](Cc1ccc2ccccc2c1)C(=O)N[C@@H](CCCNC(=N)N)C(=O)N[C@@H](CCCNC(=N)N)C(=O)N[C@@H](CCCNC(=N)N)C(=O)N[C@@H](CCCNC(=N)N)C(=O)N[C@H](C(=O)N[C@@H](CCCCN)C(N)=O)CNC3=O [Peptide 31, bicyclo[Tm-(D-Phe-His-D-Thr-Pip-Nal-Arg-Ala-D-Phe)-Dap-(Phe-Nal-Arg-Arg-Arg-Arg-Dap)]-Lys] ([dF]H[dT][Pip][2Nal]RA[dF][Dap]F[2Nal]RRRR[Dap]K-NH2; linker N-9-16 via Trimesoyl; C-terminus assumed)  1680 ± 170 nM
9. C[C@@H]1NC(=O)[C@H](CCCNC(=N)N)NC(=O)[C@H](Cc2ccc3ccccc3c2)NC(=O)[C@@H]2CCCCN2C(=O)[C@@H]([C@H](C)O)NC(=O)[C@H](Cc2ccc(Br)cc2)NC(=O)[C@@H](Cc2ccccc2)NC(=O)c2cc3cc(c2)C(=O)NC[C@H](NC(=O)[C@@H](Cc2ccccc2)NC1=O)C(=O)N[C@@H](Cc1ccccc1)C(=O)N[C@@H](Cc1ccc2ccccc2c1)C(=O)N[C@@H](CCCNC(=N)N)C(=O)N[C@@H](CCCNC(=N)N)C(=O)N[C@@H](CCCNC(=N)N)C(=O)N[C@@H](CCCNC(=N)N)C(=O)N[C@H](C(=O)N[C@@H](CCCCN)C(N)=O)CNC3=O [Peptide 32, bicyclo[Tm-(D-Phe-4-BrPhe-D-Thr-Pip-Nal-Arg-Ala-D-Phe)-Dap-(Phe-Nal-Arg-Arg-Arg-Arg-Dap)]-Lys] ([dF][Phe(4-Br)][dT][Pip][2Nal]RA[dF][Dap]F[2Nal]RRRR[Dap]K-NH2; linker N-9-16 via Trimesoyl; C-terminus assumed)  1780 ± 420 nM
10. CN1CC(=O)N[C@H](CC(=O)O)C(=O)N2CCCC[C@H]2C(=O)N[C@@H](Cc2ccc3ccccc3c2)C(=O)N[C@@H](CCCNC(=N)N)C(=O)N[C@@H](CCCNC(=N)N)C(=O)N[C@H](CC(=O)O)C(=O)N[C@H]2CNC(=O)c3cc(cc(c3)C(=O)N3CCC[C@H]3C1=O)C(=O)NC[C@@H](C(=O)N[C@@H](CCCCN)C(N)=O)NC(=O)[C@H](CCCNC(=N)N)NC(=O)[C@H](CCCNC(=N)N)NC(=O)[C@H](CCCNC(=N)N)NC(=O)[C@H](CCCNC(=N)N)NC(=O)[C@H](Cc1ccc3ccccc3c1)NC(=O)[C@H](Cc1ccccc1)NC2=O [Peptide 25, bicyclo[Tm-(Pro-Sar-D-Asp-Pip-Nal-Arg-Arg-D-Asp)-Dap-(Phe-Nal-Arg-Arg-Arg-Arg-Dap)]-Lys] (P[Sar][dD][Pip][2Nal]RR[dD][Dap]F[2Nal]RRRR[Dap]K-NH2; linker N-9-16 via Trimesoyl; C-terminus assumed)  4600 ± 1420 nM

Same assay, conditions: peptide 22 vs 3; peptide 27 vs 4

`CN1CC(=O)N[C@H](CC(=O)O)C(=O)N2CCCC[C@H]2C(=O)N[C@@H](Cc2ccc3ccccc3c2)C(=O)N[C@@H](CCCNC(=N)N)C(=O)N[C@@H](CCCNC(=N)N)C(=O)N[C@H](Cc2ccccc2)C(=O)N[C@H]2CNC(=O)c3cc(cc(c3)C(=O)N3CCC[C@H]3C1=O)C(=O)NC[C@@H](C(=O)N[C@@H](CCCCN)C(N)=O)NC(=O)[C@H](CCCNC(=N)N)NC(=O)[C@H](CCCNC(=N)N)NC(=O)[C@H](CCCNC(=N)N)NC(=O)[C@H](CCCNC(=N)N)NC(=O)[C@H](Cc1ccc3ccccc3c1)NC(=O)[C@H](Cc1ccccc1)NC2=O` [Peptide 22, bicyclo[Tm-(Pro-Sar-D-Asp-Pip-Nal-Arg-Arg-D-Phe)-Dap-(Phe-Nal-Arg-Arg-Arg-Arg-Dap)]-Lys] (P[Sar][dD][Pip][2Nal]RR[dF][Dap]F[2Nal]RRRR[Dap]K-NH2; linker N-9-16 via Trimesoyl; C-terminus assumed) was tested, and the “Improvement of Pin1 binding by D-Phe for D-Ala vs parent peptide” value was about 2 fold.
With `C[C@@H]1NC(=O)[C@H](CCCNC(=N)N)NC(=O)[C@H](Cc2ccc3ccccc3c2)NC(=O)[C@@H]2CCCCN2C(=O)[C@@H]([C@H](C)O)NC(=O)[C@H](Cc2ccc(F)cc2)NC(=O)[C@@H](Cc2ccccc2)NC(=O)c2cc3cc(c2)C(=O)NC[C@H](NC(=O)[C@@H](Cc2ccccc2)NC1=O)C(=O)N[C@@H](Cc1ccccc1)C(=O)N[C@@H](Cc1ccc2ccccc2c1)C(=O)N[C@@H](CCCNC(=N)N)C(=O)N[C@@H](CCCNC(=N)N)C(=O)N[C@@H](CCCNC(=N)N)C(=O)N[C@@H](CCCNC(=N)N)C(=O)N[C@H](C(=O)N[C@@H](CCCCN)C(N)=O)CNC3=O` [Peptide 27, bicyclo[Tm-(D-Phe-4-Fpa-D-Thr-Pip-Nal-Arg-Ala-D-Phe)-Dap-(Phe-Nal-Arg-Arg-Arg-Arg-Dap)]-Lys] ([dF][Phe(4-F)][dT][Pip][2Nal]RA[dF][Dap]F[2Nal]RRRR[Dap]K-NH2; linker N-9-16 via Trimesoyl; C-terminus assumed) the “Improvement of Pin1 binding by D-Phe for D-Ala vs parent peptide” value was about 2 fold.
